pIC50: −log10 of the molar value. Read-outs that look alike come from different tables or passages of the source.
Key:
T. cruzi Tulahuen C4 = experiment: Antitrypanosomal assay T. cruzi (beta-galactosidase reporter strain on rat skeletal myoblasts); assay type: cell-based, Trypanosoma cruzi; conditions: intracellular amastigotes, 4 days on rat skeletal myoblasts
Description: (§1) Serial dilution assays with 11 dilution steps in 96-well plates were used in order to determine the IC50 values of the generated aurachin D analogs against P. falciparum NF54 (erythrocytic stages), T. brucei rhodesiense STIB 900 (bloodstream forms), T. cruzi Tulahuen C4 (intracellular amastigotes) and L. donovani MHOM-ET-67/L82 (axenic amastigotes). Potential cytotoxic effects were evaluated with L6 myoblast cells (Table 2).
Activity against Trypanosoma cruzi was evaluated according to a procedure described by Buckner and coworkers. The strain Tulahuen C4 of T. cruzi, which had been transfected with the β-galactosidase lacZ gene, was cultivated for 4 days on rat skeletal myoblasts (5% CO2, 37 °C) in the presence of drug. For measurement of the IC50, the substrate chlorophenol red-β-D-galactopyranoside was added. The color reaction that developed during the following 2–4 h was quantified photometrically employing an ELISA reader. Benznidazole was included in each test series as positive control.

[1] = system: T. brucei rhodesiense STIB 900; experiment: Antitrypanosomal assay T. brucei rhodesiense (resazurin viability); assay type: cell-based, Trypanosoma brucei rhodesiense; conditions: read-out: IC50 T. brucei rhodesiense STIB 900
Description: as §1
Activity against Trypanosoma brucei rhodesiense (strain STIB 900) was evaluated according to a previously established protocol. Parasites were grown axenically in culture medium supplemented with horse serum. Following a 3-day exposure to test compounds, the viability of tryptomastigote parasites was quantified using the dye resazurin by monitoring the reductive environment of living cells. Fluorescence development was expressed as percentage of the control, and IC50 values were calculated. Melarsoprol was included as positive control.

[2] = system: L. donovani MHOM-ET-67/L82; experiment: Antileishmanial assay (axenic amastigotes, resazurin viability); assay type: cell-based, Leishmania donovani; conditions: 3-day exposure, pH 5.4
Description: Serial dilution assays with 11 dilution steps in 96-well plates were used in order to determine the IC50 values of the generated aurachin D analogs against P. falciparum NF54 (erythrocytic stages), T. brucei rhodesiense STIB 900 (bloodstream forms), T. cruzi Tulahuen C4 (intracellular amastigotes) and L. donovani MHOM-ET-67/L82 (axenic amastigotes). Potential cytotoxic effects were evaluated with L6 myoblast cells (Table 2). Evaluation of antileishmanial activity was carried out with axenically grown amastigotes of Leishmania donovani MHOM-ET-67/L82, as previously described. For this, the amastigotes were cultured at 37 °C and pH 5.4 in SM medium supplemented with 10% heat-inactivated fetal bovine serum under an atmosphere of 5% CO2 in air. Following a 3-day exposure to test compounds, the viability of amastigote parasites was quantified using the dye resazurin by monitoring the reductive environment of living cells. Fluorescence development was expressed as percentage of the control, and IC50 values were calculated. Miltefosine was used as positive control.

P. falciparum NF54 = experiment: Antiplasmodial assay (3H-hypoxanthine incorporation); assay type: cell-based, Plasmodium falciparum; conditions: erythrocytic stages, 48 h drug exposure + 24 h with 3H-hypoxanthine
Description: as §1
Antiplasmodial activity was determined against the NF54 strain of Plasmodium falciparum using a modified ^3H-hypoxanthine incorporation assay. Briefly, infected erythrocytes were exposed to serial drug dilutions in microtiter plates for 48 h at 37 °C in a gas mixture with reduced oxygen and elevated carbon dioxide concentrations. ^3H hypoxanthine was added to each well, and after further incubation for 24 h, the wells were harvested on glass fiber filters and counted in a liquid scintillation counter. From the sigmoidal inhibition curve, the IC50 value was calculated. Chloroquine was used as positive control in each test series.

Rat Myoblast L6 Cells = experiment: Cytotoxicity assay with L6 cells (resazurin viability); assay type: cell-based
Description: as §1
Cytotoxicity was tested with L6 cells (ATCC CRL-1458), a […] cell line derived from rat skeletal myoblasts, as previously described. For this, L6 cells were grown in culture medium supplemented with heat-inactivated fetal bovine serum under an atmosphere of 5% CO2 in air. Following a 3-day exposure to test compounds, the viability of L6 cells was quantified using the dye resazurin by monitoring the reductive environment of living cells. Fluorescence development was expressed as percentage of the control, and IC50 values were calculated. Podophyllotoxin was used as reference.

[3] = Trypanosoma cruzi, TULAHUEN, Myoblast, 96 h
[4] = Trypanosoma brucei, 72 h, bloodstream forms, 3-day exposure
[5] = Plasmodium falciparum, NF54, 72 h
[6] = Rattus norvegicus, L6, 72 h, cytotoxicity, 3-day exposure, read-out: IC50 Rat Myoblast L6 Cells
[7] = bloodstream forms, 3-day exposure
[8] = cytotoxicity, 3-day exposure, read-out: IC50 Rat Myoblast L6 Cells

SMILES	pIC50 [1, 7]	pIC50 (T. cruzi Tulahuen C4)	pIC50 [2]	pIC50 (P. falciparum NF54)	pIC50 (Rat Myoblast L6 Cells; [8])	also measured
O=C(Cn1ccnc1[N+](=O)[O-])NCc1ccccc1 [Benznidazole, reference compound]	–	–	–	–	–	pIC50 (T. cruzi Tulahuen C4; [3]): 5.60
CC(C)=CCC/C(C)=C/CC/C(C)=C/Cc1c(C)[nH]c2ccccc2c1=O [Compound 1, aurachin D]	–	–	–	–	–	pIC50 [1, 4]: 5.35; pIC50 (T. cruzi Tulahuen C4; [3]): 5.89; pIC50 ([2]; Leishmania donovani, 72 h): 7.36; pIC50 (P. falciparum NF54; [5]): 7.92; pIC50 (Rat Myoblast L6 Cells; [6]): 3.88; pIC50 (Rat Myoblast L6 Cells; Rattus norvegicus, L6, cytotoxicity, read-out: IC50 rat skeletal myoblasts): 3.88
CC(C)=CCC/C(C)=C/CC/C(C)=C/Cc1c[nH]c2ccccc2c1=O [Compound 2, 2-Desmethyl aurachin D]	5.02	5.62	5.82	8.22	4.69	–
CC(C)=CCC/C(C)=C/CC/C(C)=C/Cc1c(C)[nH]c2ccc(C)cc2c1=O [Compound 3, 6-Methyl aurachin D]	4.36	5.12	5.37	6.29	4.73	–
CC(C)=CCC/C(C)=C/CC/C(C)=C/Cc1c(C)[nH]c2cc(C)ccc2c1=O [Compound 4, 7-Methyl aurachin D]	–	–	–	–	–	pIC50 [1, 4]: 3.79; pIC50 (T. cruzi Tulahuen C4; [3]): 4.34; pIC50 ([2]; Leishmania donovani, 72 h): 5.04; pIC50 (P. falciparum NF54; [5]): 8.15; pIC50 (Rat Myoblast L6 Cells; [6]): 4.19
COc1ccc2[nH]c(C)c(C/C=C(\C)CC/C=C(\C)CCC=C(C)C)c(=O)c2c1 [Compound 5, 6-Methoxy aurachin D]	4.39	4.71	5.14	6.06	3.93	–
COc1ccc2c(=O)c(C/C=C(\C)CC/C=C(\C)CCC=C(C)C)c(C)[nH]c2c1 [Compound 6, 7-Methoxy aurachin D]	4.35	4.66	4.77	7.05	4.09	–
CC(C)=CCC/C(C)=C/CC/C(C)=C/Cc1c(C)[nH]c2ccc(F)cc2c1=O [Compound 7, 6-Fluoro aurachin D]	4.43	5.74	6.21	7.21	3.90	–
CC(C)=CCC/C(C)=C/CC/C(C)=C/Cc1c(C)[nH]c2ccc(Cl)cc2c1=O [Compound 8, 6-Chloro aurachin D]	4.43	4.95	5.21	7.68	3.93	–
CC(C)=CCC/C(C)=C/CC/C(C)=C/Cc1c(C)[nH]c2cc(Cl)ccc2c1=O [Compound 9, 7-Chloro aurachin D]	3.98	4.38	5.04	7.15	4.26	–
CC(C)=CCC/C(C)=C/CC/C(C)=C/Cc1c(C)[nH]c2ccc(Br)cc2c1=O [Compound 10, 6-Bromo aurachin D]	4.40	4.65	4.86	6.92	3.97	–
Nc1nc(N)nc(Nc2ccc([As]3SCC(CO)S3)cc2)n1 (stereo not shown) [Melarsoprol, reference compound]	–	–	–	–	–	pIC50 ([1]; Trypanosoma brucei, 72 h): 7.89
CCCCCCCCCCCCCCCCOP(=O)([O-])OCC[N+](C)(C)C [Miltefosine, reference compound]	–	–	–	–	–	pIC50 ([2]; Leishmania donovani, 72 h): 6.14
COc1cc([C@@H]2c3cc4c(cc3[C@H](O)[C@H]3COC(=O)[C@H]23)OCO4)cc(OC)c1OC [Podophyllotoxin, reference compound]	–	–	–	–	–	pIC50 (Rat Myoblast L6 Cells; Rattus norvegicus, L6, 72 h, read-out: IC50 Rat Myoblast L6 Cells): 7.66
